Source: patent publication US10285979B2, “Breast cancer therapeutic agent containing 5′-hydroxy-5-nitro-indirubin-3′-oxime as active ingredient” (ANYGEN CO., LTD., priority 2016, dated 2019)

What was measured:
[1] = test system: MOLT-4; conditions: 10 μM; leukemia cell line MOLT-4
Text: (§1) If the growth percent is 0%, it means that no further growth of cancer cells occurs, which is an ideal case.

[2] = test system: HOP-92; conditions: 10 μM; non-small cell lung cancer cell line HOP-92
Text: as §1

[3] = test system: MDA-MB-435; conditions: 10 μM; malignant melanoma cell line MDA-MB-435
Text: as §1

[4] = test system: OVCAR-8; conditions: 10 μM; ovarian cancer cell line OVCAR-8
Text: as §1

[5] = test system: CCRE-CEM; conditions: 10 μM; leukemia cell line CCRE-CEM
Text: as §1

[6] = test system: HOP-62; conditions: 10 μM; non-small cell lung cancer cell line HOP-62
Text: as §1

[7] = test system: NCI/ADR/RES; conditions: 10 μM; ovarian cancer cell line NCI/ADR/RES
Text: as §1

[8] = test system: COLO 205; conditions: 10 μM; colorectal cancer cell line COLO 205
Text: as §1

[9] = test system: LOX IMVI; conditions: 10 μM; malignant melanoma cell line LOX IMVI
Text: as §1

[10] = test system: NCI-H226; conditions: 10 μM; non-small cell lung cancer cell line NCI-H226
Text: as §1

[11] = test system: M14; conditions: 10 μM; malignant melanoma cell line M14
Text: as §1

[12] = test system: IGROV1; conditions: 10 μM; ovarian cancer cell line IGROV1
Text: as §1

[13] = test system: UACC-62; conditions: 10 μM; malignant melanoma cell line UACC-62
Text: as §1

[14] = test system: NCI-H322M; conditions: 10 μM; non-small cell lung cancer cell line NCI-H322M
Text: as §1

[15] = test system: SF-295; conditions: 10 μM; CNS cancer cell line SF-295
Text: as §1

[16] = test system: HS 578T; conditions: 10 μM; breast cancer cell line HS 578T
Text: as §1

[17] = test system: SR; conditions: 10 μM; leukemia cell line SR
Text: as §1

[18] = test system: OVCAR-4; conditions: 10 μM; ovarian cancer cell line OVCAR-4
Text: as §1

[19] = test system: OVCAR-3; conditions: 10 μM; ovarian cancer cell line OVCAR-3
Text: as §1

[20] = test system: ACHN; conditions: 10 μM; renal cell carcinoma cell line ACHN
Text: as §1

[21] = test system: A498; conditions: 10 μM; renal cell carcinoma cell line A498
Text: as §1

[22] = test system: HT29; conditions: 10 μM; colorectal cancer cell line HT29
Text: as §1

[23] = test system: SK-MEL-28; conditions: 10 μM; malignant melanoma cell line SK-MEL-28
Text: as §1

[24] = test system: NCI-H522; conditions: 10 μM; non-small cell lung cancer cell line NCI-H522
Text: as §1

[25] = test system: PC-3; conditions: 10 μM; prostate cancer cell line PC-3
Text: as §1

[26] = test system: KM12; conditions: 10 μM; colorectal cancer cell line KM12
Text: as §1

[27] = test system: SN12C; conditions: 10 μM; renal cell carcinoma cell line SN12C
Text: as §1

[28] = test system: RPMI-8226; conditions: 10 μM; leukemia cell line RPMI-8226
Text: as §1

[29] = test system: CAKI-1; conditions: 10 μM; renal cell carcinoma cell line CAKI-1
Text: as §1

[30] = test system: K-562; conditions: 10 μM; leukemia cell line K-562
Text: as §1

[31] = test system: SK-MEL-2; conditions: 10 μM; malignant melanoma cell line SK-MEL-2
Text: as §1

[32] = test system: MALME-3M; conditions: 10 μM; malignant melanoma cell line MALME-3M
Text: as §1

[33] = test system: UACC-257; conditions: 10 μM; malignant melanoma cell line UACC-257
Text: as §1

[34] = test system: BT-549; conditions: 10 μM; breast cancer cell line BT-549
Text: as §1

[35] = test system: SF-539; conditions: 10 μM; CNS cancer cell line SF-539
Text: as §1

[36] = test system: MCF-7; conditions: 10 μM; breast cancer cell line MCF-7
Text: as §1

[37] = test system: SK-MEL-4; conditions: 10 μM; malignant melanoma cell line SK-MEL-4
Text: as §1

[38] = test system: HCT-15; conditions: 10 μM; colorectal cancer cell line HCT-15
Text: as §1

[39] = test system: NCI-H23; conditions: 10 μM; non-small cell lung cancer cell line NCI-H23
Text: as §1

[40] = test system: T-47D; conditions: 10 μM; breast cancer cell line T-47D
Text: as §1

[41] = test system: OVCAR-5; conditions: 10 μM; ovarian cancer cell line OVCAR-5
Text: as §1

[42] = test system: SNB-75; conditions: 10 μM; CNS cancer cell line SNB-75
Text: as §1

Compound `O=C1Nc2ccc([N+](=O)[O-])cc2C1=C1Nc2ccc(O)cc2C1=NO` [AGM-130, (2′Z 3′E)-5′-hydroxy-5-nitro indirubin oxime] has a Growth percent [1] of 2.17%, a Growth percent [2] of −3.09% and a Growth percent [3] of 9.35%. It also gave a Growth percent [4] of 7.71%, a Growth percent [5] of 0.49% and a Growth percent [6] of −9.77%. It also gave a Growth percent [7] of 42.05%, a Growth percent [8] of 65.80% and a Growth percent [9] of −32.44%. It also gave a Growth percent [10] of −4.70%, a Growth percent [11] of 11.37% and a Growth percent [12] of 6.36%. It also gave a Growth percent [13] of −34.39%, a Growth percent [14] of 7.21% and a Growth percent [15] of 20.93%. The Growth percent [16] was 1.21%, the Growth percent [17] was 0.38% and the Growth percent [18] was 19.65%. For the same compound, the Growth percent [19] was 4.31%, the Growth percent [20] was −25.79% and the Growth percent [21] was −24.52%. For the same compound, the Growth percent [22] was 69.21%, the Growth percent [23] was −11.04% and the Growth percent [24] was −79.07%. It also gave a Growth percent [25] of 2.12%, a Growth percent [26] of −32.96% and a Growth percent [27] of 23.68%. For the same compound, the Growth percent [28] was −7.92%, the Growth percent [29] was −14.28% and the Growth percent [30] was 20.90%. It also gave a Growth percent [31] of −55.01%, a Growth percent [32] of 11.73% and a Growth percent [33] of 9.29%. For the same compound, the Growth percent [34] was 4.59%, the Growth percent [35] was −34.15% and the Growth percent [36] was 2.75%. It also gave a Growth percent [37] of −40.95%, a Growth percent [38] of 10.28% and a Growth percent [39] of 3.19%. The Growth percent [40] was 16.80%, the Growth percent [41] was 11.33% and the Growth percent [42] was −28.05%.
